{"source": "patent US8673857B2", "about": "“Long term potentiation with cyclic-GluR6 analogs” (Brown University, priority 2009, dated 2014)", "key": {"[1]": {"test_system": "NMDA receptor", "assay": "Whole cell patch recording of isolated NMDA EPSC, CA1 pyramidal neuron in hippocampal slices", "conditions": "perfusion in presence of NBQX 5 μM and picrotoxin 50 μM, clamped at +40 mV, CN2097 2 μM, APV 50 μM", "description": "APV is a selective NMDA receptor antagonist.\n(§1) CN 2097 is effective in synaptic plasticity and is able to lower the threshold for LTP induction, as shown FIG. 2. […] Without being bound by any particular theory, it is believed that CN 2097 acts through its ability to specifically interfere with NR2B activity and expression to change the sliding threshold for synaptic plasticity, altering the ratio of NR2A:NR2B. Similarly, antagonism of NR2B has been reported to lower the threshold for synaptic plasticity, such that LTP can be induced in response to a normally impotent stimulation with NMDA agonist. […] The cell voltage was clamped at +40 mV and synaptic responses were recorded."}, "[2]": {"test_system": "PDZ domains of other MAGUKS, MUPP1, S-SCAM, Shank and spinophilin", "assay": "PDZ-domain array of 96 His-tagged PDZ domains", "type": "binding", "description": "(§2) Using Fmoc-based protocols, a series of peptide ligands were synthesized that complement the PDZ-binding domain of PSD-95 with the criteria of being membrane permeable, resistant to protease activity and biologically active. The peptide KNYKKTEV, which codes for the CRIPT PDZ-3 binding motif, was cyclized between the valine (V) and threonine (T) residues via beta-alanine linkage and either myristylated (CN2180) or linked to a poly-arginine tail (CN2097; FIG. 1) to enhance its diffusion and uptake capacity by neurons in intact tissues. Binding specificity of CN2180 was tested against a PDZ-domain array consisting of 96 distinct His-tagged PDZ domains purified and spotted on a gridded nylon membrane. […] CN 2097 acts as competitive ligand for this binding site and as such is able to disrupt the normal binding of NR2B receptors to the PSD. Also, it is believed that CN2097 disrupts NR2B downstream signaling by displacing signaling effectors attached directly or indirectly to the NR2B/PSD-95 signaling complex including CaMKII. […] Without being bound by any particular theory, this effect is believed due to the disruption of apoptotic and necrotic cell signaling pathways that propagate the cell death signal."}, "[3]": {"biological_target": "T1, PDZ3 domain of PSD-95 (Homo sapiens, UniProt P78352)", "T1 construct": "His", "T1 sequence (P78352 313-393 limits assumed)": "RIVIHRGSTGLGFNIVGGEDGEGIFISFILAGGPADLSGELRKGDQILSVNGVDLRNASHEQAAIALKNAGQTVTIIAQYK", "assay": "PDZ-domain array of 96 His-tagged PDZ domains", "type": "binding", "description": "as §2"}, "[4]": {"biological_target": "T2, PDZ1-PDZ2 domains of PSD-95 (Homo sapiens, UniProt P78352)", "T2 construct": "His", "T2 sequence (P78352 65-246 limits assumed)": "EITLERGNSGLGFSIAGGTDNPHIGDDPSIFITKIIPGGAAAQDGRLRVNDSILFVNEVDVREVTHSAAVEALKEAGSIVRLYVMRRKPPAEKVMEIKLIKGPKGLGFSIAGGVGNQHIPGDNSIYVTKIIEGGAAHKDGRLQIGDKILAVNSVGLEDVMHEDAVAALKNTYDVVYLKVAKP", "assay": "PDZ-domain array of 96 His-tagged PDZ domains", "type": "binding", "description": "as §2"}, "[5]": {"test_system": "PI3K and AKT signaling", "assay": "ACPD (mGluR1 agonist) signaling with CN2097 added", "type": "cell-based", "conditions": "CN2097 added to ACPD", "procedure": "ACPD, an agonist of mGluR1, when CN2097 is added leads to an enhancement of PI3K and AKT signaling."}, "[6]": {"assay": "Uptake into the brain post i.v.", "type": "in vivo", "conditions": "hippocampus, cerebellum, periventricular nucleus of the hypothalmus, deep cerebellar nuclei, sub-cortex, retina", "description": "In addition uptake into the deep cerebellar nuclei, in the sub-cortex and the retina are noted."}, "[7]": {"test_system": "retina and hippocampus", "assay": "Excitotoxic studies with lethal doses of NMDA", "description": "as §2"}, "[8]": {"assay": "Human plasma half-life", "type": "in vitro ADME"}, "[9]": {"test_system": "AS mouse (Ube3am−/p+) hippocampal slices", "assay": "LTP in AS mouse (Ube3am-/p+) hippocampal slice, three trains of HFS", "conditions": "CN2097 2 μM superfused 20-50 minutes, three trains of HFS 10 seconds apart at 40 minutes", "procedure": "Then CN2097 2 μM was superfused from 20-50 minutes. The arrow at 40 minutes indicates three trains of High Frequency Stimuli 10 seconds apart. The HFS is 100 pulses in 1 second with an interpulse interval of 10 ms, i.e. 100 Hz. […] In AS mice this stimulation is normally unable to induce LTP (FIG. 8.). At 90-100 minutes the averaged response was 159.8+/−1.1%, n=7.\n(§3) Ube3a deficient (“AS”) mice were developed previously (Jiang, Y. H. et al. Mutation of the Angelman ubiquitin ligase in mice causes increased cytoplasmic p53 and deficits of contextual learning and long-term potentiation. Neuron 21, 799-811 (1998)), were obtained through the Jackson Laboratory. Mice were bred on a 129S7 background. To obtain heterozygous mice lacking the Ube3a gene maternally (m−/p+), we crossed a heterozygous female mouse (m−/p+) with a wild-type male mouse (m+/p+). Wild type (WT) littermates (m+/p+) were used as controls."}, "[10]": {"test_system": "mTOR, S6 and AKT expression pathways", "assay": "Western blots of in vivo injected retinas, SH-SY5Y neuroblastomas and primary cerebellar granule neurons", "type": "cell-based", "description": "Additionally, upregulation of CaMKII, an NMDAR-PSD-95 associated protein, is believed to be associated with synaptic plasticity. Biochemical analyses using western blots of in vivo injected retinas, cultured SH-SY5Y neuroblastomas and primary cultured mouse cerebellar granule neurons (CGN) was undertaken. Left and right eyes were given in vivo injections of phosphate buffered saline (PBS), NMDA, NMDA with CN 2097 and NMDA with CN5135, the retinas were then removed and lysed. CGNs were stimulated by a paradigm designed to mimic synaptic stimulation ([…] in ACSF) and SH-SY5Y cells were activated by nerve growth factor (NGF 50 ng/ml). […] Additionally CN2097 increased the expression CREB, which is also neuroprotective. Also observed were increases in levels of PSD-95.\nCN2097 (2 μM) was tested after injection into eyes/retinas (lower left panel) applied to cell cultures for 5-30 minutes concurrently with either a synaptic stimulation and nerve growth factor (NGF) 50 ng/ml. CN2097 saw increased ERK, AKT1/2, p-S6K, p-S6, p-ERK, p-p38, p-CREB and PSD-95. Additionally, CN2097 (2 μM) inhibited p-JNK. CN2097S (szeto sequence used instead of Pol-Arginine) and CN5135 (2, 10 and […]), a structural analogue of CN2097 with disruptive alanine substitutions at the 0 and −2 ring positions (binding domain) were used a negative controls whilst tat-NR2B9c (TAT, 2 μM) was used as a positive control."}, "[11]": {"test_system": "WT mouse hippocampal slice", "assay": "LTP in WT mouse hippocampal slice, one sub-threshold HFS (fEPSP slope)", "procedure": "FIG. 6 presents data from a WT mouse adult hippocampal slice. An arrow indicates the time point at which one sub-threshold High Frequency Stimuli (HFS, 100 pulse in 1 second every 10 ms, 100 Hz) was applied. The white box indicates the treatment with CN2097 2 μM.\nas §3"}, "[12]": {"test_system": "retinal ganglion cells", "assay": "NMDA-induced ganglion cell death in the rat retina, intravitreal injection", "type": "in vivo", "procedure": "Rat eyes were given an intravitreal injection containing 20 nmol of NMDA with 3 nmol CN2097 being co-administered or injected following NMDA insult at 1, 2 or 6 hrs. Retinal ganglion cell survival was assessed by counting fluorogold-labeled cells In an defined area (between 2 and 3 mm) from the center of the optic nerve head of each retina and compared with untreated (control) retinas.\nTests included 20 nmol NMDA vs 1.2 nmol CN2097/20 nmol NMDA."}, "[13]": {"test_system": "Schaffer Collateral-CA1 synapse", "assay": "Sub-threshold LTP induction at Schaffer Collateral-CA1 synapse (fEPSP)", "parameters": "species or system adult Wistar rat", "conditions": "for LTP induction with sub-threshold protocol: CN2097 2 μM, low intensity 1 second 100 Hz HFS that normally fails to induce LTP", "description": "It would normally induce no increase in baseline fEPSP responses (lower line).\nas §1"}, "[14]": {"test_system": "NR2B NMDAR subunit", "assay": "Electrophysiological and biochemical preliminary studies", "description": "as §2"}}, "note": "Entries after “also recorded” stand apart in the source; their conditions may differ. Starred links: 1 amine or outer side, 2 acyl side, 3 side chain; linkers in the order of their positions; H or OH if unused. Positions of bridges follow the written chain, without caps; N, C: chain ends. Residues, ends and D or L forms follow the SMILES beside them. Chains are numbered I, II in the order given. No end group written: not given here. X1 = O=C(CCN[*:2])[*:1]; βAla = NCCC(=O)O"}
{"compound": "N[C@@H](CCCP(=O)(O)O)C(=O)O", "note": "[APV, reference compound]", "values": [{"measurement": "effect on pharmacologically isolated NMDA EPSC", "setting": "[1]", "value": "abolished the EPSC"}]}
{"compound": "CN2180: peptide KNYKKTEV cyclized between valine and threonine via beta-alanine linkage, myristylated (bridge (positions not given here) via βAla; also: cyclized between valine and threonine via beta-alanine linkage, myristylated, site not given here)", "values": [{"measurement": "binding to PDZ domains of other MAGUKS and other PDZ-containing proteins", "setting": "[2]", "value": "did not bind"}, {"measurement": "binding to PDZ3 domain of PSD-95", "setting": "[3]", "value": "moderate binding"}, {"measurement": "binding specificity to PDZ1-PDZ2 domains of PSD-95", "setting": "[4]", "value": "high specificity"}]}
{"compound": "CC(C)[C@H](NC(=O)[C@@H]1CCC(=O)NCCC(=O)NCCCC[C@H](NC(=O)[C@H](CCCCN)NC(=O)[C@H](Cc2ccc(O)cc2)NC(=O)[C@H](CC(N)=O)NC(=O)[C@H](CCCCN)NC(=O)[C@@H](N)CSSC[C@H](N)C(=O)N[C@@H](CCCNC(=N)N)C(=O)N[C@@H](CCCNC(=N)N)C(=O)N[C@@H](CCCNC(=N)N)C(=O)N[C@@H](CCCNC(=N)N)C(=O)N[C@@H](CCCNC(=N)N)C(=O)N[C@@H](CCCNC(=N)N)C(=O)N[C@@H](CCCNC(=N)N)C(N)=O)C(=O)N[C@@H]([C@@H](C)O)C(=O)N1)C(=O)O", "note": "[CN2097] (I: H-CKNYKKTEV-OH / II: H-CRRRRRRR-NH2; disulfide I:1-II:1; linker I:6-I:8 via X1)", "values": [{"measurement": "PI3K and AKT signaling with ACPD", "setting": "[5]", "value": "enhancement"}, {"measurement": "uptake into the brain", "setting": "[6]", "value": "uptake into the brain has also been noted"}, {"measurement": "effect on pharmacologically isolated NMDA EPSC", "setting": "[1]", "value": "lack of effect"}, {"measurement": "effect on pharmacologically isolated NMDA EPSC", "setting": "[1]; listed as CN 2097", "value": "does not act as an antagonist"}, {"measurement": "neuroprotection against lethal doses of NMDA", "setting": "[7]", "value": "neuroprotective"}, {"measurement": "half-life", "setting": "[8]", "value": "~48", "unit": "min"}, {"measurement": "LTP, averaged response at 90-100 minutes", "setting": "[9]", "value": "159.8+/−1.1%"}, {"measurement": "expression of CREB", "setting": "[10]", "value": "increased"}, {"measurement": "levels of PSD-95", "setting": "[10]", "value": "increases"}, {"measurement": "p-JNK", "setting": "[10]; 2 μM", "value": "inhibiting; also recorded: inhibited"}, {"measurement": "total protein expression and phosphorylation state of pro-survival signaling proteins (CamKII, ERK, AKT1/2, p-S6K, p-S6, p-ERK, p-p38, p-CREB, PSD-95)", "setting": "[10]; 2 μM, 5-30 minutes, with synaptic stimulation or NGF 50 ng/ml, or injected retinas", "value": "increases in both total protein expression and phosphorylation state; also recorded: increased"}, {"measurement": "LTP, % of baseline fEPSP slope", "setting": "[11]; 2 μM treatment combined with one sub-threshold HFS (HFS1, 100 Hz)", "value": "187.2+/−1.034%"}, {"measurement": "effect of compound alone upon baseline responses", "setting": "[11]; CN2097 2 μM, between 20 and 40 minutes, before HFS", "value": "no significant observed effect"}, {"measurement": "NMDA-induced TUNEL-labeling in the retina", "setting": "[12]; 20 nmol NMDA vs 1.2 nmol CN2097/20 nmol NMDA", "value": "blocked"}, {"measurement": "ganglion cell death with post-treatment", "setting": "[12]; 20 nmol NMDA, 3 nmol CN2097 co-administered or injected 1, 2 or 6 hrs after NMDA", "value": "neuroprotective effects"}, {"measurement": "NMDA-induced poly(ADP-ribosyl)ation-immunoreactivity (PAR-IR)", "setting": "[12]; matched paired retinas, 20 nmol NMDA", "value": "dose dependent attenuation"}, {"measurement": "NMDA-induced ganglion cell loss, fluorogold retrograde labeling", "setting": "[12]; viewed 14 days post insult", "value": "provided protection"}, {"measurement": "NMDA-induced loss of plasma membrane selectivity (LPMS; necrosis)", "setting": "[12]; vs time matched NMDA-treated retina", "value": "blocked"}, {"measurement": "duration of induced LTP", "setting": "[13]; 2 μM CN 2097, 1 second 100 Hz HFS", "value": "over 60 minutes"}, {"measurement": "LTP induction with sub-threshold protocol", "setting": "[13]", "value": "results in LTP induction"}, {"measurement": "LTP induction with sub-threshold protocol", "setting": "[13]; listed as CN 2097", "value": "induced a significant LTP"}, {"measurement": "specificity toward the NR2B NMDAR subunit", "setting": "[14]", "value": "demonstrates specificity"}]}
